Source: patent US20250025451A1, “TREATMENT OF CANCER WITH KDM4 INHIBITORS” (Celgene Corporation, priority 2021, published 2025)
pIC50: −log10 of the molar value.

Key:
MCF-7 = experiment: cell-proliferation assay (MTS), MCF-7; type: cell-based; settings: MCF-7, human breast carcinoma
Description: Compound 1 was evaluated in in vitro cell-proliferation assays (BrdU assay, MTS assay, or Cell Titer Glo (CTG) assay) in multiple cancer cell lines and patient-derived organoid models to determine half-maximal inhibitory concentrations (IC50s).
Viability and BrdU thymidine incorporation assays were performed in multiwell plates seeded with cells in growth medium. After seeding, multiwell plates were cultured for 24 hours in a humidified incubator at 37° C. to promote adherence. […] The cultures were incubated for 168 hours after which the number of viable cells or the amount of thymidine incorporation in each test well was assessed by the methods as indicated above. Readouts were performed using an EnVision® Multilabel Reader (PerkinElmer, Waltham, MA) and the results were expressed as a percent of the negative control. Percent of Control values were plotted against the corresponding Compound 1 concentration and the relative IC50 value was determined from a non-linear regression curve as the concentration where inhibition was half-maximal. For cell lines where the number of IC50 determinations exceeded one, the IC50 was expressed as the mean IC50±SD.
Half-maximal inhibitory concentration (IC50) values for Compound 1 inhibition of cell proliferation were determined for nine cancer cell lines and one normal human fibroblastcell line.

[1] = system: SU34 patient-derived colon cancer organoid model; experiment: organoid colony formation assay, SU34; type: cell-based, human
Description: (§1) The IC50 values for Compound 1 inhibition of colony formation and viability were determined for the patient-derived colon cancer organoid models: SU60, T002C, SU62, SU34, SU103, T03SC, and SU106, patient-derived pancreatic cancer organoid models PA016SF, PA0143F, T016P, and T028P, and a patient-derived breast cancer organoid model FS5S3.
(§2) Colony formation and viability assays were performed in multiwell plates seeded with organoids using an in vitro culture system composed of a Matrigel layer, media containing a defined set of growth factors, and co-culture with Wnt3 A-secreting mouse embryonic fibroblasts. Assays were initiated by adding either DMSO as a negative control, or an inhibitor panobinostatat 100×IC50 concentration as a positive control, or serially diluted Compound 1. The cultures were incubated for 168 or 144 hours after which the number of viable organoids in each test well was assessed respectively using one of two detection methods: CTG or staining with calcein-AM followed by imaging and colony counting. Colony count or viability of cells treated with compound 1 was expressed as a percent of the negative control. Aggregated Percent of Control values were plotted against the corresponding Compound 1 concentration and the absolute IC50 value was determined from a non-linear regression curve as the concentration where inhibition was 50% of the control.

[2] = system: PA0165F patient-derived pancreatic cancer organoid model; experiment: organoid colony formation and viability assay, PA0165F; type: cell-based, human
Description: as §1, §2

[3] = system: tumorigenic CD44^High;EpCAM^+ cells of SU60 xenograft tumors; experiment: flow cytometry analysis of tumorigenic cell population after treatment of SU60 xenograft tumors; type: in vivo; settings: NSG female mice, 40 mg/kg PO QD x21
Description: The ability of Compound 1 to affect tumorigenic potential was analyzed by flow cytometry analysis of the tumorigenic cell population and functional in vivo tumorigenicity assay (limiting dilution assay).
To assess the effect of Compound 1 on tumorigenic cell population, Compound 1 was used to treat SU60 xenograft tumors. NSG female mice engrafted with SU60 cells (7 mice each group) were administered Compound 1 at 40 mg/kg PO QD×21. The day after the last dose, three tumors nearest to the mean size from each group were dissociated and the single cells were used to perform: 1) flow cytometry analysis of the tumorigenic cell population and 2) functional in vivo tumorigenicity assay (limiting dilution assay). Flow Cytometry Analysis of Tumorigenic Cell Population after Compound 1 Treatment
The proportion of tumorigenic CD44^High;EpCAM^+ cells in the cell population was quantified by flow cytometry. […] Flow cytometry analysis performed on single cell isolated from 3 vehicle-treated and 3 Compound 1-treated tumors. P-value was determined with unpaired Student T-test.

PNUTS mRNA = experiment: inhibition of PNUTS gene expression by qPCR in MDA-MB-231 cells; type: cell-based; settings: Homo sapiens, 24 hours
Description: In a study of the inhibitory effects of Compound 1 on the gene expression of PNUTS, MDA-MB-231 cells were treated for 24 hours and expression levels of PNUTS mRNA in response to Compound 1 treatment were measured by qPCR. The inhibition of PNUTS mRNA was quantified by calculating mean percent change in PNUTS gene expression following the Compound 1 treatment relative to the DMSO-treated control and IC50 value was calculated as concentration where inhibition was half-maximal. The IC50 value was 0.007 μM.

H3K36me3 = experiment: dose-dependent inhibition of histone demethylase, H3K36me3 immunoblot; type: cell-based; settings: FIG. 6
Description: FIG. 6 illustrates the dose-dependent inhibition of histone demethylase by Compound 1. Left Panel: Representative immunoblot showing change in staining intensity for actin (red bands) and H3K36me3 (green bands) in response to Compound 1 at various concentrations. Right Panel: Normalized ratio of band intensities for H3K36me3 and actin versus the concentration of Compound 1 (μM). (mean IC50±SD value−0.085±0.004 μM).

SMILES: CC(C)c1ccc(N(C)c2ccc3c(c2)OCC[C@H]3CNc2cnccc2C(=O)O)cc1 [Compound 1, 3-({[(4R)-7-{methyl[4-(propan-2-yl)phenyl]amino}-3,4-dihydro-2H-1-benzopyran-4-yl]methyl}amino)pyridine-4-carboxylic acid]
- pIC50 (MCF-7; Homo sapiens, MCF7, 168 h): > 7.40
- pIC50 (MCF-7; 168 hours): 7.43
- pIC50 ([1]; Homo sapiens, SU34 colorectal carcinoma model): < 5.00
- pIC50 ([1]; SU34 human colorectal carcinoma organoid, 144 hrs, Colony Counts): < 5.00
- pIC50 ([2]; Homo sapiens, PA0165F pancreatic carcinoma model): > 7.52
- pIC50 ([2]; PA0165F human pancreatic carcinoma organoid, 144 hrs, Colony Counts): 7.80
- pIC50 ([2]; PA0165F human pancreatic carcinoma organoid, 168 hrs, CTG): 7.54
- reduction of the proportion of tumorigenic cells (CD44^High;EpCAM^+) compared to vehicle control [3]: 2.5 fold
- pIC50 (PNUTS mRNA): 8.15
- mean IC50±SD, H3K36me3/actin band intensity ratio (H3K36me3): 85 ± 4 nM
